Source: patent US8609690B2, “Aryl- and heteroarylcarbonyl derivatives of substituted nortropanes, medicaments containing such compounds and their use” (Boehringer Ingelheim International GmbH, priority 2008, dated 2013)

The molecules below were run against T1, 11β-HSD 1 (Homo sapiens, UniProt P28845) (assay: In vitro inhibition of 11β-HSD 1, HTRF detection of cortisol generated by human liver microsomes). Details: 1 μM test compound, 100% indicates no inhibition, zero or below zero indicates complete inhibition (relative to carbenoxolone).
T1 construct: detecting cortisol generated from cortisterone by human liver microsomes; from tissue; host or cells: human liver microsomes
T1 sequence (P28845 whole entry): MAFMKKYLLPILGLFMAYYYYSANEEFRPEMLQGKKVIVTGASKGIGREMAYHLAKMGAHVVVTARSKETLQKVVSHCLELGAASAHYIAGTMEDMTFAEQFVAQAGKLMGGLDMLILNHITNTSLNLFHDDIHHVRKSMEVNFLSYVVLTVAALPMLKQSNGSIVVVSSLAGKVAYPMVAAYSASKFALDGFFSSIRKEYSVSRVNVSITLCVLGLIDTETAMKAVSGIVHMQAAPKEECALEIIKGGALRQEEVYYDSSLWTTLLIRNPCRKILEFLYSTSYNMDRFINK
Type: biochemical
Procedure: Briefly, compounds were incubated for 1 hour at 37° C. in Tris buffer (20 mM tris, 5 mM EDTA, pH 6.0) containing NADPH (200 μM) and cortisone (80 nM). Cortisol generated in the reaction is then detected with a competitive immunoassay, involving two HTRF conjugates: cortisol linked to XL665 and anti-cortisol antibody labeled with Europium cryptate. The incubation period for detection reaction was typically 2 hours. The amount of cortisol is determined by reading the time-resolved fluorescence of the wells (Ex 320/75 nm; Em 615/8.5 nm and 665/7.5 nm). The ratio of the two emission signals is then calculated (Em665*10000/Em615). […] Each assay also contained a calibration curve with cortisol to transform the fluorescent data into cortisol concentrations. Percent inhibition of each compound was determined relative to the carbenoxolone signal. In Table 2 the 11β-HSD 1 inhibitory activities at 1 μM concentration of test compound, determined as described above, of the compounds listed in Table 3 are compiled, wherein 100% indicates no inhibition and a value of zero or below zero indicates complete inhibition.
With `Nc1ccc(C(=O)N2[C@@H]3CC[C@H]2C[C@@H](c2ccc(F)cc2)C3)cc1F` [Example 176, endo-(4-Amino-3-fluoro-phenyl)-[3-(4-fluoro-phenyl)-8-aza-bicyclo[3.2.1]oct-8-yl]-methanone] the “Inhibitory activity on 11β-HSD 1, % CTL” value was −42 % CTL. In the case of `COc1c(F)cc(C(=O)N2[C@@H]3CC[C@H]2C[C@@H](c2ccc(F)cc2)C3)cc1F` [Example 168, endo-(3,5-Difluoro-4-methoxy-phenyl)-[3-(4-fluoro-phenyl)-8-aza-bicyclo[3.2.1]oct-8-yl]-methanone], the “Inhibitory activity on 11β-HSD 1, % CTL” value is reported as 6 % CTL. `O=C(c1ccc2c(c1)OC(F)(F)O2)N1[C@@H]2CC[C@H]1C[C@@H](c1ccc(F)cc1)C2` [Example 76, endo-(2,2-Difluoro-benzo[1,3]dioxol-5-yl)-[3-(4-fluoro-phenyl)-8-aza-bicyclo[3.2.1]oct-8-yl]-methanone] was tested, and the “Inhibitory activity on 11β-HSD 1, % CTL” value was 76 % CTL. For `COc1ccc(C(=O)N2[C@@H]3CC[C@H]2C[C@@H](c2ccc(F)cc2)C3)cc1` [Example 108, endo-[3-(4-Fluoro-phenyl)-8-aza-bicyclo[3.2.1]oct-8-yl]-(4-methoxy-phenyl)-methanone], the “Inhibitory activity on 11β-HSD 1, % CTL” value was 1 % CTL. For `O=C1CCCN1c1cccc(C(=O)N2[C@@H]3CC[C@H]2C[C@@H](c2ccc(F)cc2)C3)c1` [Example 75, endo-1-{3-[3-(4-Fluoro-phenyl)-8-aza-bicyclo[3.2.1]octane-8-carbonyl]-phenyl}-pyrrolidin-2-one], the “Inhibitory activity on 11β-HSD 1, % CTL” value was 92 % CTL. For `Cn1c(=O)n(C)c2cc(C(=O)N3[C@@H]4CC[C@H]3C[C@@H](c3ccc(F)cc3)C4)ccc21` [Example 39, endo-5-[3-(4-Fluoro-phenyl)-8-aza-bicyclo[3.2.1]octane-8-carbonyl]-1,3-dimethyl-1,3-dihydro-benzoimidazol-2-one], the “Inhibitory activity on 11β-HSD 1, % CTL” value was 43 % CTL. For `O=C(c1ccc2c(c1)OCCO2)N1[C@@H]2CC[C@H]1C[C@@H](c1c(F)cccc1F)C2` [Example 161, endo-[3-(2,6-Difluoro-phenyl)-8-aza-bicyclo[3.2.1]oct-8-yl]-(2,3-dihydro-benzo[1,4]dioxin-6-yl)-methanone], the “Inhibitory activity on 11β-HSD 1, % CTL” value was −30 % CTL. `O=C(c1ccccc1F)N1[C@@H]2CC[C@H]1C[C@@H](c1ccc(F)cc1)C2` [Example 57, endo-(2-Fluoro-phenyl)-[3-(4-fluoro-phenyl)-8-aza-bicyclo[3.2.1]oct-8-yl]-methanone] was tested, and the “Inhibitory activity on 11β-HSD 1, % CTL” value was 63 % CTL. `COc1ccccc1[C@H]1C[C@H]2CC[C@@H](C1)N2C(=O)c1ccc2c(c1)OCCO2` [Example 156, endo-(2,3-Dihydro-benzo[1,4]dioxin-6-yl)-[3-(2-methoxy-phenyl)-8-aza-bicyclo[3.2.1]oct-8-yl]-methanone] was tested, and the “Inhibitory activity on 11β-HSD 1, % CTL” value was −13 % CTL. With `O=C(c1ccc2c(c1)OCCO2)N1[C@@H]2CC[C@H]1C[C@@H](c1cccc(O)c1)C2` [Example 141, endo-(2,3-Dihydro-benzo[1,4]dioxin-6-yl)-[3-(3-hydroxy-phenyl)-8-aza-bicyclo[3.2.1]oct-8-yl]-methanone] the “Inhibitory activity on 11β-HSD 1, % CTL” value was 29 % CTL. In the case of `COc1ccc([C@H]2C[C@H]3CC[C@@H](C2)N3C(=O)c2ccc3c(c2)OCCO3)cc1` [Example 134, endo-(2,3-Dihydro-benzo[1,4]dioxin-6-yl)-[3-(4-methoxy-phenyl)-8-aza-bicyclo[3.2.1]oct-8-yl]-methanone], the “Inhibitory activity on 11β-HSD 1, % CTL” value is reported as −5 % CTL. For `CNc1cccc(C(=O)N2[C@@H]3CC[C@H]2C[C@@H](c2ccc(F)cc2)C3)c1` [Example 83, endo-[3-(4-Fluoro-phenyl)-8-aza-bicyclo[3.2.1]oct-8-yl]-(3-methylamino-phenyl)-methanone], the “Inhibitory activity on 11β-HSD 1, % CTL” value was −30 % CTL. With `O=C(c1ccccc1Cl)N1[C@@H]2CC[C@H]1C[C@@H](c1ccc(F)cc1)C2` [Example 111, endo-(2-Chloro-phenyl)-[3-(4-fluoro-phenyl)-8-aza-bicyclo[3.2.1]oct-8-yl]-methanone] the “Inhibitory activity on 11β-HSD 1, % CTL” value was 61 % CTL. For `COc1ccc(C(=O)N2[C@@H]3CC[C@H]2C[C@@H](c2ccc(F)cc2)C3)cc1C` [Example 170, endo-[3-(4-Fluoro-phenyl)-8-aza-bicyclo[3.2.1]oct-8-yl]-(4-methoxy-3-methyl-phenyl)-methanone], the “Inhibitory activity on 11β-HSD 1, % CTL” value was −34 % CTL. With `Nc1nc2cc(C(=O)N3[C@@H]4CC[C@H]3C[C@@H](c3ccc(F)cc3)C4)ccc2[nH]1` [Example 48, endo-(2-Amino-1H-benzoimidazol-5-yl)-[3-(4-fluoro-phenyl)-8-aza-bicyclo[3.2.1]oct-8-yl]-methanone] the “Inhibitory activity on 11β-HSD 1, % CTL” value was 1 % CTL. In the case of `Cc1ccc(C(=O)N2[C@@H]3CC[C@H]2C[C@@H](c2ccc(F)cc2)C3)cc1O` [Example 55, endo-[3-(4-Fluoro-phenyl)-8-aza-bicyclo[3.2.1]oct-8-yl]-(3-hydroxy-4-methyl-phenyl)-methanone], the “Inhibitory activity on 11β-HSD 1, % CTL” value is reported as 31 % CTL. For `O=C(c1cccs1)N1[C@@H]2CC[C@H]1C[C@@H](c1ccc(F)cc1)C2` [Example 7, endo-[3-(4-Fluoro-phenyl)-8-aza-bicyclo[3.2.1]oct-8-yl]-thiophen-2-yl-methanone], the “Inhibitory activity on 11β-HSD 1, % CTL” value was 68 % CTL. With `Nc1ccc(C(=O)N2[C@@H]3CC[C@H]2C[C@@H](c2ccc(F)cc2)C3)cc1` [Example 177, endo-(4-Amino-phenyl)-[3-(4-fluoro-phenyl)-8-aza-bicyclo[3.2.1]oct-8-yl]-methanone] the “Inhibitory activity on 11β-HSD 1, % CTL” value was −44 % CTL. For `O=C(c1ccc2c(c1)OCCO2)N1[C@@H]2CC[C@H]1C[C@@H](c1ccc(OC(F)(F)F)cc1)C2` [Example 140, endo-(2,3-Dihydro-benzo[1,4]dioxin-6-yl)-[3-(4-trifluoromethoxy-phenyl)-8-aza-bicyclo[3.2.1]oct-8-yl]-methanone], the “Inhibitory activity on 11β-HSD 1, % CTL” value was −5 % CTL. In the case of `Cc1cc(C(=O)N2[C@@H]3CC[C@H]2C[C@@H](c2ccc(F)cc2)C3)cc(C)c1O` [Example 164, endo-[3-(4-Fluoro-phenyl)-8-aza-bicyclo[3.2.1]oct-8-yl]-(4-hydroxy-3,5-dimethyl-phenyl)-methanone], the “Inhibitory activity on 11β-HSD 1, % CTL” value is reported as −29 % CTL. For `Cc1cc(C(=O)N2[C@@H]3CC[C@H]2C[C@@H](c2ccc(F)cc2)C3)ccc1O` [Example 166, endo-[3-(4-Fluoro-phenyl)-8-aza-bicyclo[3.2.1]oct-8-yl]-(4-hydroxy-3-methyl-phenyl)-methanone], the “Inhibitory activity on 11β-HSD 1, % CTL” value was −33 % CTL. With `CC(C)(C)Oc1ccc(C(=O)N2[C@@H]3CC[C@H]2C[C@@H](c2ccc(F)cc2)C3)cc1` [Example 49, endo-(4-tert-Butoxy-phenyl)-[3-(4-fluoro-phenyl)-8-aza-bicyclo[3.2.1]oct-8-yl]-methanone] the “Inhibitory activity on 11β-HSD 1, % CTL” value was 67 % CTL. With `O=C(c1ccc2c(c1)OCCO2)N1[C@@H]2CC[C@H]1C[C@@H](c1ccccc1O)C2` [Example 159, endo-(2,3-Dihydro-benzo[1,4]dioxin-6-yl)-[3-(2-hydroxy-phenyl)-8-aza-bicyclo[3.2.1]oct-8-yl]-methanone] the “Inhibitory activity on 11β-HSD 1, % CTL” value was −55 % CTL. In the case of `O=C(c1ccc2c(c1)OCCO2)N1C2CCC1CC(c1ccc(F)c(Cl)c1)C2` (stereo not shown) [Example 148, [3-(3-Chloro-4-fluoro-phenyl)-8-aza-bicyclo[3.2.1]oct-8-yl]-(2,3-dihydro-benzo[1,4]dioxin-6-yl)-methanone], the “Inhibitory activity on 11β-HSD 1, % CTL” value is reported as −48 % CTL. `Cc1nc(-c2cccc(C(=O)N3[C@@H]4CC[C@H]3C[C@@H](c3ccc(F)cc3)C4)c2)no1` [Example 88, endo-[3-(4-Fluoro-phenyl)-8-aza-bicyclo[3.2.1]oct-8-yl]-[3-(5-methyl-[1,2,4]oxadiazol-3-yl)-phenyl]-methanone] was tested, and the “Inhibitory activity on 11β-HSD 1, % CTL” value was 98 % CTL. `O=C1Cc2cc(C(=O)N3[C@@H]4CC[C@H]3C[C@@H](c3ccc(F)cc3)C4)ccc2N1` [Example 47, endo-5-[3-(4-Fluoro-phenyl)-8-aza-bicyclo[3.2.1]octane-8-carbonyl]-1,3-dihydro-indol-2-one] was tested, and the “Inhibitory activity on 11β-HSD 1, % CTL” value was −17 % CTL. With `C[Si](C)(C)c1ccc([C@H]2C[C@H]3CC[C@@H](C2)N3C(=O)c2ccc3c(c2)OCCO3)cc1` [Example 143, endo-(2,3-Dihydro-benzo[1,4]dioxin-6-yl)-[3-(4-trimethyl-silyl-phenyl)-8-aza-bicyclo[3.2.1]oct-8-yl]-methanone] the “Inhibitory activity on 11β-HSD 1, % CTL” value was 58 % CTL. In the case of `O=C(c1ccc2c(c1)OCCO2)N1C2CCC1CC(c1ccc(Cl)cc1)C2` (stereo not shown) [Example 151, [3-(4-Chloro-phenyl)-8-aza-bicyclo[3.2.1]oct-8-yl]-(2,3-dihydro-benzo[1,4]dioxin-6-yl)-methanone], the “Inhibitory activity on 11β-HSD 1, % CTL” value is reported as −44 % CTL. In the case of `O=C(c1ccc(OC2CSC2)cc1)N1[C@@H]2CC[C@H]1C[C@@H](c1ccc(F)cc1)C2` [Example 31, endo-[3-(4-Fluoro-phenyl)-8-aza-bicyclo[3.2.1]oct-8-yl]-[4-(thietan-3-yloxy)-phenyl]-methanone], the “Inhibitory activity on 11β-HSD 1, % CTL” value is reported as 86 % CTL. `CN1C(=O)Cc2cc(C(=O)N3[C@@H]4CC[C@H]3C[C@@H](c3ccc(F)cc3)C4)ccc21` [Example 78] was tested, and the “Inhibitory activity on 11β-HSD 1, % CTL” value was 49 % CTL. With `O=C1Cc2ccc(C(=O)N3[C@@H]4CC[C@H]3C[C@@H](c3ccc(F)cc3)C4)cc2N1` [Example 46, endo-6-[3-(4-Fluoro-phenyl)-8-aza-bicyclo[3.2.1]octane-8-carbonyl]-1,3-dihydro-indol-2-one] the “Inhibitory activity on 11β-HSD 1, % CTL” value was 97 % CTL.
